# Assay results reported in PMC3101270 (Biochemistry, 2011).
# What was measured:
# HsOPRT [1] = target: T1, HsOPRT (Homo sapiens, UniProt P11172); assay: ultrafiltration with 3H/[…]-labelled ligand; format: binding
# T1 sequence (P11172 2-214 limits assumed): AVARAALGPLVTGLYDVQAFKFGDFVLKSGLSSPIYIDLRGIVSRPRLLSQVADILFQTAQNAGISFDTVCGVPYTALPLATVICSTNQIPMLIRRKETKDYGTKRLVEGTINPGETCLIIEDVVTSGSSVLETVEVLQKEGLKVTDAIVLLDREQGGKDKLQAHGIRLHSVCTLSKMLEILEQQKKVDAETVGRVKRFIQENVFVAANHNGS
# PfOPRT [2] = target: T2, PfOPRT (Plasmodium falciparum, UniProt Q8N0R1); assay: ultrafiltration with 3H/[…]-labelled ligand; format: binding
# T2 sequence (Q8N0R1 1-281): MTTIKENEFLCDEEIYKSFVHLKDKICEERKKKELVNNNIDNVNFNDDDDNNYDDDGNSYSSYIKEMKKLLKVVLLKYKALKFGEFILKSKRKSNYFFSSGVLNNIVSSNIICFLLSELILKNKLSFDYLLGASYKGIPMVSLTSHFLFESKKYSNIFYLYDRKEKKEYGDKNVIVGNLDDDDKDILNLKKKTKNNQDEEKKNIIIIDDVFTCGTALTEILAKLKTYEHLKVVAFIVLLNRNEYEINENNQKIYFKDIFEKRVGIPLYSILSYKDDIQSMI
# HsOPRT [3] = target: T1, HsOPRT; assay: enzyme inhibition; format: biochemical
# PfOPRT [4] = target: T2, PfOPRT; assay: enzyme inhibition; format: biochemical
SMILES,Kd (HsOPRT [1]) [µM],Kd (PfOPRT [2]) [µM],Ki (HsOPRT [3]) [µM],Ki (PfOPRT [4]) [µM]
O=C(O)c1cc(=O)[nH]c(=O)n1[C@@H]1O[C@H](COP(=O)(O)O)[C@@H](O)[C@H]1O [OMP],2.5 ± 1.2,3.1 ± 1.6,,
O=S(=O)(O)O [sulfate],,,17600 ± 2800,3100 ± 300
